Numbers after ± are expanded uncertainties. Values belong to the compound of their own block, whether it stands above or below them.
Conditions: Liquid, Ebulliometric method (Recirculating still)

vapor or sublimation pressure (374.08 K): 101.3 ± 1 kPa
Structure (SMILES): CC1CCCCC1 [methylcyclohexane]

vapor or sublimation pressure (385.15 K): 101.3 ± 1 kPa
Structure (SMILES): CCC(C)OC(C)=O (stereo not drawn) [1-methylpropyl ethanoate]

vapor or sublimation pressure (371.58 K): 100 ± 1 kPa
Structure (SMILES): CCCCCCC [heptane]

From the NIST ThermoML archive (doi:10.1021/acs.jced.7b00999)
